Test [1] has as its system tobacco budworm (Heliothis virescens). In words: Activity against tobacco budworm (TBW). Format: in vivo. To be noted: 144 h, read-out: percent mortality, TBW. A digest of the protocol: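 Eighteen to twenty Heliothis virescens eggs were placed on half-strength artificial diet and sprayed one hour later with compound at 400 and 50 ppm, in aqueous Tween 20 with acetone/EtOH. Cups were held 6 days at room temperature. Ratings were based on live and dead larval counts and live larval size.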

For test [2], the system named is aster leafhopper (Macrosteles fascifrons). As to the kind of experiment: whole plant or invertebrate. To be noted: 24 h, read-out: percent mortality, ALH.
In test [3] the test system is beet armyworm (Spodoptera exiqua). In words: whole plant or invertebrate. The conditions noted are these: 144 h, read-out: percent mortality, BAW.
For test [4], the system named is cotton aphid (Aphis gossypii). In words: whole plant or invertebrate. To be noted: 72 h, read-out: percent mortality, CA.
In test [5] the test system is peanut root knot nematode (Meloidogyne arenaria). As to the kind of experiment: whole plant or invertebrate. The conditions noted are these: in Arachis hypogaea, read-out: percent mortality, RKN.
The test system of test [6] is Southern corn rootworm (Diabrotica undecimpuctata howardi Barber). In words: whole plant or invertebrate. The conditions noted are these: in Zea mays, soil, read-out: percent mortality, SCRW.
Test [7] relates to two spotted spider mite (Tetranychus urticae). In words: whole plant or invertebrate. The conditions noted are these: 72 h, read-out: percent mortality, TSSM.
In test [8] the test system is German cockroach (Blattella germanicus). As to the kind of experiment: whole plant or invertebrate. To be noted: 240 h, read-out: percent mortality, GECR.

Regarding `CCc1nccc(NC(=O)C(=CN(C)C)c2ccc(Oc3ccc(C(F)(F)F)cc3)cc2)n1` [Compound 73, 3-(dimethylamino)-N-(2-ethyl-4-pyrimidinyl)-1-(4-(4-trifluoromethylphenoxy)phenyl)-2-propenamide], the mortality at 400 ppm in test [1], in test [2], in test [3], in test [4], in test [5] and in test [7] was 100% each time. Besides, the mortality at 400 ppm in test [8] turned out to be 100%. In test [6], the mortality at 24 µg/g was 100%.

With `CCc1nccc(NC(=O)C(=CN(C)C)c2ccc(Oc3ccc(Cl)cc3)cc2)n1` [Compound 76, 3-(dimethylamino)-N-(2-ethyl-4-pyrimidinyl)-1-(4-(4-chlorophenoxy)phenyl)-2-propenamide], the mortality at 400 ppm in test [1] is 100%; in test [2] it was 100%; in test [3] it was 100%; in test [4], 100%; in test [5], 100%; in test [7], 80%. In addition, in test [8], the mortality at 400 ppm was 80%. The mortality at 24 µg/g in test [6] is 100%.

Take `CCc1nccc(NC(=O)C(=CN(C)C)c2ccc(Oc3ccc(C#N)cc3)cc2)n1` [Compound 78, 3-(dimethylamino)-N-(2-ethyl-4-pyrimidinyl)-1-(4-(4-cyanophenoxy)phenyl)-2-propenamide]: the mortality at 400 ppm in test [1] amounted to 100%; in test [2] it was 60%; in test [3], 100%; in test [4] it was 80%; in test [5] it was 100%; in test [7], 80%. For the same molecule, the mortality at 400 ppm in test [8] worked out at 80%. Also, in test [6], the mortality at 24 µg/g is 0%.

With `CCNC=C(C(=O)Nc1ccnc(CC)n1)c1ccc(Oc2ccc(C#N)cc2)cc1` [Compound 79, 3-(ethylamino)-N-(2-ethyl-4-pyrimidinyl)-1-(4-(4-cyanophenoxy)phenyl)-2-propenamide], the mortality at 400 ppm in test [1] turned out to be 100%; in test [2], 80%; in test [3] it was 100%; in test [4] it was 100%; in test [5], 100%; in test [7] it was 100%. The mortality at 400 ppm in test [8] was found to be 100%. The mortality at 24 µg/g in test [6] was determined as 100%.

Turning to `CCc1nccc(NC(=O)C(=CNCC(C)C)c2ccc(Oc3ccc(C#N)cc3)cc2)n1` [Compound 80, 3-(2-methylpropylamino)-N-(2-ethyl-4-pyrimidinyl)-2-(4-(4-cyanophenoxy)phenyl)-2-propenamide], the mortality at 400 ppm in test [1] worked out at 100%; in test [2], 60%; in test [3], 100%; in test [4], 100%; in test [5] it was 100%; in test [7] it was 100%. Moreover, the mortality at 400 ppm in test [8] stood at 100%. Moreover, the mortality at 24 µg/g in test [6] is 100%.

For the origin of these results see US5556859A, “N-(4-pyrimidinyl)amide pesticides” (DowElanco, priority 1994, dated 1996).
